Data taken from ChEMBL document CHEMBL1201862, “PubChem BioAssay data set” (2004).
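Tested at 5 concentrations; 48 h exposure; 96-well plates; endpoints linearly interpolated, else capped at highest concentration. Here, GI50 denotes the concentration required for 50% inhibition of growth.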 The source made the active and inactive calls. Cut-off read from the data, not from the text of the source: active = GI50 up to about 1.1 µM and inactive = higher.

Legend:
Test in all cases: growth of human tumour cells (NCI), 48 h
[1] = tested on: NCI-H460
[2] = tested on: K562
[3] = tested on: SF-295
[4] = tested on: UACC-257
[5] = tested on: A549
[6] = tested on: ACHN
[7] = tested on: CAKI-1
[8] = tested on: HCT-116
[9] = tested on: SN12C
[10] = tested on: SK-MEL-28
[11] = tested on: SNB-19
[12] = tested on: SF-268
[13] = tested on: OVCAR-8
[14] = tested on: SF-539
[15] = tested on: RXF 393
[16] = tested on: SK-OV-3
[17] = tested on: EKVX
[18] = tested on: CCRF-CEM

Measured: GI50

CCc1cccc(C)c1NC(=O)CC1C(=O)Nc2ccccc2[S+]1[O-] (centres undefined)
inactive: [1] 33.6 µM | [2] 24.7 µM | [3] 32.1 µM | [4] 31.8 µM | [5] 39.1 µM | [6] 71.6 µM | [7] 53.6 µM | [8] 35.8 µM | [9] 50 µM | [10] 73.1 µM | [11] 48.4 µM | [12] 42.2 µM | [13] 46 µM | [14] 29.2 µM

COc1ccc2c(c1)OCCCN(C)OC2c1ccccc1 (centres undefined)
inactive: [2] > 100 µM | [3] > 100 µM | [15] > 100 µM | [16] > 100 µM | [4] > 100 µM | [5] > 100 µM | [17] > 100 µM | [6] > 100 µM | [7] > 100 µM | [8] > 100 µM | [9] > 100 µM | [10] 89.3 µM | [11] > 100 µM | [12] > 100 µM | [13] > 100 µM | [14] > 100 µM

ClCCCCOC1CCCCO1 (centres undefined)
inactive: [1] > 100 µM | [3] > 100 µM | [15] > 100 µM | [16] > 100 µM | [4] > 100 µM | [5] > 100 µM | [17] > 100 µM | [6] > 100 µM | [7] > 100 µM | [8] > 100 µM | [9] > 100 µM | [10] > 100 µM | [11] > 100 µM | [12] > 100 µM | [13] > 100 µM | [14] > 100 µM

O=C1C2Cc3ccccc3CN2C(=O)N1CCN1CCOCC1 (centres undefined)
inactive: [1] > 100 µM | [2] > 100 µM | [3] > 100 µM | [5] > 100 µM | [6] > 100 µM | [7] > 100 µM | [9] > 100 µM | [10] > 100 µM | [11] > 100 µM | [12] > 100 µM | [18] > 100 µM | [13] > 100 µM | [14] > 100 µM

CN(C)CCCCC1CCN(CC(=O)N2c3ccccc3NC(=O)c3ccccc32)CC1
inactive: [2] > 100 µM | [3] > 100 µM | [16] > 100 µM | [4] > 100 µM | [5] > 100 µM | [17] > 100 µM | [7] > 100 µM | [8] > 100 µM | [9] > 100 µM | [10] > 100 µM | [11] > 100 µM | [12] > 100 µM | [18] 69.8 µM | [13] > 100 µM | [14] > 100 µM
